Data: ChEMBL document CHEMBL1201862, “PubChem BioAssay data set” (2004)
Structures can show the parent of a compound that is named as a salt.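 Tested at 5 concentrations; 48 h exposure; 96-well plates; endpoints linearly interpolated, else capped at highest concentration. At the GI50, growth is halved.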 Calls of active or inactive are those of the source. No stated cut-off is given here; in the data, active = GI50 up to about 1.1 µM and inactive = higher.

Experiments:
Test in all cases: NCI-60 cell line screen, 48 h
[1] = tested on: PC-3
[2] = tested on: NCI-H460
[3] = tested on: U-251
[4] = tested on: NCI/ADR-RES
[5] = tested on: NCI-H23
[6] = tested on: HOP-92
[7] = tested on: SK-MEL-28
[8] = tested on: HCC 2998
[9] = tested on: BT-549
[10] = tested on: MDA-N
[11] = tested on: T47D
[12] = tested on: MDA-MB-435
[13] = tested on: A549
[14] = tested on: HCT-15
[15] = tested on: KM12
[16] = tested on: RXF 393
[17] = tested on: HCT-116
[18] = tested on: CAKI-1
[19] = tested on: SK-MEL-2

Row | Compound | GI50 [1] | GI50 [2] | GI50 [3] | GI50 [4] | GI50 [5] | GI50 [6] | GI50 [7] | GI50 [8] | GI50 [9] | GI50 [10] | GI50 [11] | GI50 [12] | GI50 [13] | GI50 [14] | GI50 [15] | GI50 [16] | GI50 [17] | GI50 [18] | GI50 [19]
1 | CC(C)=CCNc1ncnc2c1ncn2CCC#N | > 100 µM (inactive) | > 100 µM (inactive) | > 100 µM (inactive) | > 100 µM (inactive) | > 100 µM (inactive) | > 100 µM (inactive) | > 100 µM (inactive) | > 100 µM (inactive) | > 100 µM (inactive) | > 100 µM (inactive) | > 100 µM (inactive) | > 100 µM (inactive) | > 100 µM (inactive) | > 100 µM | > 100 µM (inactive) | 2.21 µM (inactive) | > 100 µM (inactive) |  | 
2 | N=C(N)c1ccc(-c2ccc(-c3ccc(C(=N)N)cc3)o2)cc1 [FURAMIDINE HYDROCHLORIDE] | 39.5 µM (inactive) | 17.6 µM (inactive) | 16.6 µM (inactive) | 31.3 µM (inactive) | 22 µM (inactive) | 62.4 µM (inactive) | 20.6 µM (inactive) |  | 37.5 µM (inactive) | 27.5 µM (inactive) | 23.4 µM (inactive) | 30.7 µM (inactive) | 34.2 µM (inactive) | 40.9 µM | 22.5 µM (inactive) | 32 µM (inactive) | 28.8 µM (inactive) | 54.3 µM (inactive) | 23.8 µM (inactive)
3 | Cn1c(N)c(/C=C/C(=O)Oc2ccccc2)c(=O)n(C)c1=O | > 100 µM (inactive) | > 100 µM (inactive) | 52.8 µM (inactive) | 75.3 µM (inactive) | > 100 µM (inactive) | 22.3 µM (inactive) | > 100 µM (inactive) | > 100 µM (inactive) | > 100 µM (inactive) | > 100 µM (inactive) | 85.3 µM (inactive) | > 100 µM (inactive) | > 100 µM (inactive) | > 100 µM | > 100 µM (inactive) | 44.2 µM (inactive) | > 100 µM (inactive) | 29 µM (inactive) | > 100 µM (inactive)
4 | O=C(O[C@H]1[C@@H](O)[C@H](n2cnc3c(Cl)ncnc32)O[C@@H]1COC(c1ccccc1)(c1ccccc1)c1ccccc1)c1ccccc1 | 11 µM (inactive) | 17.5 µM (inactive) | 22.8 µM (inactive) | 34.8 µM (inactive) | 20.4 µM (inactive) | 15.8 µM (inactive) | 46.3 µM (inactive) | 16.1 µM (inactive) | 18.2 µM (inactive) | 35.9 µM (inactive) | 3.98 µM (inactive) | 26.8 µM (inactive) | 56.1 µM (inactive) | 17.4 µM | 16.1 µM (inactive) | 16.6 µM (inactive) | 40.9 µM (inactive) | 2.62 µM (inactive) | 21.2 µM (inactive)
5 | CC(C)CCC/C(CBr)=C(\Cl)CCl | 4.76 µM (inactive) | 5.05 µM (inactive) | 4.04 µM (inactive) | 3.27 µM (inactive) | 2.4 µM (inactive) | 2.14 µM (inactive) | 2.07 µM (inactive) | 8.59 µM (inactive) | 1.82 µM (inactive) | 1.83 µM (inactive) | 1.17 µM (inactive) | 2.36 µM (inactive) | 15.7 µM (inactive) | 2.8 µM | 2.15 µM (inactive) | 1.57 µM (inactive) | 2.69 µM (inactive) | 5.06 µM (inactive) | 1.46 µM (inactive)
6 | Nc1nc(S)nc2snnc12 | > 100 µM (inactive) | > 100 µM (inactive) | > 10 µM (inactive) | > 100 µM (inactive) | > 100 µM (inactive) | > 100 µM (inactive) | > 100 µM (inactive) | > 100 µM (inactive) | > 100 µM (inactive) | > 100 µM (inactive) | > 100 µM (inactive) | > 100 µM (inactive) | > 100 µM (inactive) | > 100 µM | > 100 µM (inactive) | > 100 µM (inactive) | > 100 µM (inactive) | > 100 µM (inactive) | > 100 µM (inactive)
7 | O=Cc1ccc2ccocc1-2 | > 100 µM (inactive) | > 100 µM (inactive) | > 100 µM (inactive) | > 100 µM (inactive) | > 100 µM (inactive) | > 100 µM (inactive) |  | > 100 µM (inactive) | > 100 µM (inactive) | > 100 µM (inactive) | > 100 µM (inactive) | > 100 µM (inactive) | > 100 µM (inactive) | > 100 µM | > 100 µM (inactive) | > 100 µM (inactive) | > 100 µM (inactive) | > 100 µM (inactive) | > 100 µM (inactive)
8 | Cc1cccc(C)c1NC(=O)C(=O)CC(=O)/C=C/c1ccccc1 | > 100 µM (inactive) | 73.6 µM (inactive) | > 100 µM (inactive) | > 100 µM (inactive) | > 100 µM (inactive) | > 100 µM (inactive) | > 100 µM (inactive) | > 100 µM (inactive) | > 100 µM (inactive) | > 100 µM (inactive) | > 100 µM (inactive) | > 100 µM (inactive) | > 100 µM (inactive) | > 100 µM | > 100 µM (inactive) | > 100 µM (inactive) | > 100 µM (inactive) | > 100 µM (inactive) | > 100 µM (inactive)
9 | CN1CCN(c2nc3cc(F)ccc3n3cccc23)CC1 | 28.4 µM (inactive) | 18.5 µM (inactive) | 41.5 µM (inactive) | 50.7 µM (inactive) | 36 µM (inactive) | 30.2 µM (inactive) | 21.4 µM (inactive) | 42.1 µM (inactive) | 49.2 µM (inactive) | 30.4 µM (inactive) | 29 µM (inactive) | 23.4 µM (inactive) | 36.9 µM (inactive) | 32.1 µM | 39.2 µM (inactive) | 23.4 µM (inactive) | 25.5 µM (inactive) | 22 µM (inactive) | 
10 | CN(C)/C=N/c1ccc2c3c(cccc13)-c1ccccc1-2 | 12.8 µM (inactive) |  | 13.4 µM (inactive) | 14.9 µM (inactive) | 17.2 µM (inactive) | 12.4 µM (inactive) | 17.7 µM (inactive) |  | 17 µM (inactive) | 14.5 µM (inactive) | 15 µM (inactive) | 15.1 µM (inactive) | 11.5 µM (inactive) | 11.8 µM |  | 7.83 µM (inactive) | 15.4 µM (inactive) |  | 17.1 µM (inactive)
11 | Cn1c2c(c3c(=O)[nH]ncc31)Cc1ccccc1-2 | 21.5 µM (inactive) | 3.04 µM (inactive) | 13.5 µM (inactive) | 16 µM (inactive) | 24.3 µM (inactive) | 25.2 µM (inactive) | 24.4 µM (inactive) |  | 18.3 µM (inactive) | 12.9 µM (inactive) | 25.6 µM (inactive) | 14.3 µM (inactive) | 6.56 µM (inactive) | 11.1 µM | 16.3 µM (inactive) | 15.5 µM (inactive) | 3.64 µM (inactive) | 13.3 µM (inactive) | 21.3 µM (inactive)
12 | COC(=O)c1cc2/c(=N/O)c3ccccc3sc2o1 | > 100 µM (inactive) | 61 µM (inactive) | > 100 µM (inactive) | > 100 µM (inactive) | > 100 µM (inactive) | > 100 µM (inactive) | > 100 µM (inactive) | > 100 µM (inactive) | > 100 µM (inactive) | > 100 µM (inactive) | > 100 µM (inactive) | > 100 µM (inactive) | > 100 µM (inactive) | > 100 µM | > 100 µM (inactive) |  | > 100 µM (inactive) | > 100 µM (inactive) | > 100 µM (inactive)
